Values joined by “and” are separate entries in the source; they are usually repeats but may differ in a detail not shown here. Equal entries are not always repeated. Toxic doses and inconclusive results are not listed. Rule for the calls: active = survival T/C of 150% or more; inactive = T/C below 125% in these data.
System: BDF1 mice, P388 leukemia ip, median survival T/C
Assay: NCI In Vivo Anticancer Drug Screen. Data for tumor model P388 Leukemia (intraperitoneal) in B6D2F1 (BDF1) mice
Settings: endpoint: median survival time, higher = longer survival
Outline: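 Each value expresses how treatment altered survival: treated-mouse outcome over vehicle-mouse outcome, both groups bearing the transplanted tumour.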

[1] = dose: 50.0 mg/kg/injection, schedule: Q01DX009 (ip), vehicle: saline with Tween-80
[2] = dose: 100.0 mg/kg/injection, schedule: Q01DX009 (ip), vehicle: saline with Tween-80
[3] = dose: 100.0 mg/kg/injection, schedule: Q04DX003 (ip), vehicle: saline with Tween-80
[4] = dose: 200.0 mg/kg/injection, schedule: Q01DX009 (ip), vehicle: saline with Tween-80
[5] = dose: 200.0 mg/kg/injection, schedule: Q04DX003 (ip), vehicle: saline with Tween-80
[6] = dose: 400.0 mg/kg/injection, schedule: Q04DX003 (ip), vehicle: saline with Tween-80
[7] = dose: 400.0 mg/kg/injection, schedule: Q01DX009 (ip), vehicle: saline with Tween-80

Measured: T/C

CCc1cc2c(cc1C(=O)CBr)C(C)(C)CCC2(C)C
inactive: dose: 3.12 mg/kg/injection, schedule: Q01DX009 (ip), vehicle: Klucel (hydroxypropylcellulose) (HPC) 110 % of control | dose: 3.8 mg/kg/injection, schedule: Q04DX003 (ip), vehicle: Klucel (hydroxypropylcellulose) (HPC) 113 % of control | dose: 5.7 mg/kg/injection, schedule: Q04DX003 (ip), vehicle: Klucel (hydroxypropylcellulose) (HPC) 113 % of control | dose: 6.25 mg/kg/injection, schedule: Q01DX009 (ip), vehicle: Klucel (hydroxypropylcellulose) (HPC) 105 % of control | dose: 12.5 mg/kg/injection, schedule: Q01DX009 (ip), vehicle: Klucel (hydroxypropylcellulose) (HPC) 110 % of control | dose: 23.0 mg/kg/injection, schedule: Q04DX003 (ip), vehicle: Klucel (hydroxypropylcellulose) (HPC) 100 % of control | dose: 52.5 mg/kg/injection, schedule: Q04DX003 (ip), vehicle: Klucel (hydroxypropylcellulose) (HPC) 120 % of control

Cc1ccc(C(=O)C2CC2)c(C)c1
inactive: [1] 92 % of control | [2] 103 % of control | [3] 112 % of control | [4] 100 % of control | [5] 120 % of control | [6] 108 % of control

COC(=O)C(Br)C(OC)c1ccc(C)cc1 (stereo not drawn)
inactive: [2] 100 % of control | [4] 100 % of control | [7] 95 % of control

CCC(=O)/C=C/c1ccccc1
inactive: [1] 93 % of control | [2] 109 % of control | [4] 118 % of control

CCOC(=O)/C=C(\C)C(C)=O
inactive: [2] 104 % of control | [3] 109 % of control | [4] 109 % of control | [5] 104 % of control | [7] 113 % of control | [6] 118 % of control

Cc1cccc(C)c1N=CNc1c(C)cccc1C.[Cu+2]
inactive: dose: 25.0 mg/kg/injection, schedule: Q01DX009 (ip), vehicle: saline with Tween-80 103 % of control | [1] 86 % of control

CC(=O)O[C@@H]1[C@H]2O[C@H]2[C@H]2O[C@@]2(COC(=O)c2ccccc2)[C@H]1OC(C)=O
inactive: dose: 100.0 mg/kg/injection, schedule: Q01DX010 (ip), vehicle: steriod suspending solution 90 % of control | dose: 200.0 mg/kg/injection, schedule: Q01DX010 (ip), vehicle: steriod suspending solution 90 % of control | dose: 400.0 mg/kg/injection, schedule: Q01DX010 (ip), vehicle: steriod suspending solution 86 % of control

COc1cc(C=Nc2ccc(C(=O)O)cc2)ccc1N(CCCl)CCCl
inactive: dose: 1.3 mg/kg/injection, schedule: Q04DX003 (ip), vehicle: saline with Tween-80 115 % of control | dose: 2.0 mg/kg/injection, schedule: Q04DX003 (ip), vehicle: saline with Tween-80 111 % of control | dose: 37.5 mg/kg/injection, schedule: Q04DX003 (ip), vehicle: saline with Tween-80 107 % of control
active: dose: 3.0 mg/kg/injection, schedule: Q04DX003 (ip), vehicle: saline with Tween-80 162 % of control | dose: 7.0 mg/kg/injection, schedule: Q04DX003 (ip), vehicle: saline with Tween-80 150 % of control and 158 % of control | dose: 11.0 mg/kg/injection, schedule: Q04DX003 (ip), vehicle: saline with Tween-80 170 % of control | dose: 12.5 mg/kg/injection, schedule: Q01DX009 (ip), vehicle: saline with Tween-80 195 % of control | dose: 16.0 mg/kg/injection, schedule: Q04DX003 (ip), vehicle: saline with Tween-80 187 % of control | dose: 16.5 mg/kg/injection, schedule: Q04DX003 (ip), vehicle: saline with Tween-80 169 % of control | dose: 25.0 mg/kg/injection, schedule: Q04DX003 (ip), vehicle: saline with Tween-80 196 % of control

CC(=O)C(O)c1c(O)cc(C)[nH]c1=O (stereo not drawn)
inactive: [1] 100 % of control | [2] 97 % of control | [4] 98 % of control

CCCC(Sc1nc(N)nc2nc[nH]c12)C(=O)O (stereo not drawn)
inactive: dose: 100.0 mg/kg/injection, schedule: Q01DX009 (ip), vehicle: saline sonified 115 % of control | dose: 100.0 mg/kg/injection, schedule: Q04DX003 (ip), vehicle: saline sonified 109 % of control | dose: 200.0 mg/kg/injection, schedule: Q04DX003 (ip), vehicle: saline sonified 118 % of control | dose: 400.0 mg/kg/injection, schedule: Q01DX009 (ip), vehicle: saline sonified 100 % of control | dose: 400.0 mg/kg/injection, schedule: Q04DX003 (ip), vehicle: saline sonified 109 % of control

Source: PubChem BioAssay AID328 (DTP/NCI, 2004)
